Results on 52 molecules are retold here after patent publication EP4755881A1 (Wuhan Createrna Science and Technology Co., Ltd., priority 2023, dated 2025).

In general, pIC50 refers to the IC50 on a negative log10 scale, so that one unit is a factor of ten.

SMILES strings stand for the structures. pIC50: −log10 of the molar value.

T1 sequence (Q92633 whole entry): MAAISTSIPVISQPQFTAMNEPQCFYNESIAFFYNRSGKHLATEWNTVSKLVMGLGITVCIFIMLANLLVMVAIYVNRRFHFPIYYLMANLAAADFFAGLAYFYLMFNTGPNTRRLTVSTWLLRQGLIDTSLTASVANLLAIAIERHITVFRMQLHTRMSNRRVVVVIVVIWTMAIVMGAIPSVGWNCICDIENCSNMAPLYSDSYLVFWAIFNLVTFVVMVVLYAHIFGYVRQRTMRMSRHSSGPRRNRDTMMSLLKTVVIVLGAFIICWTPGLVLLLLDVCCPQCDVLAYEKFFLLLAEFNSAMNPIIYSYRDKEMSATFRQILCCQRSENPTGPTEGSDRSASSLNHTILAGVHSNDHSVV

This assay has as its target T1, LPAR1 receptor (Homo sapiens, UniProt Q92633).
T1 construct: expressed in transfected cells
The assay can be described thus: LPAR1 in vitro biological activity evaluation 2: HTRF cAMP kit (LANCE Ultra cAMP Kit) assay in CHO stable transfected cell line expressing the LPAR1 receptor. The class given is cell-based. Particulars: Table 2, read-out: LPAR1 inhibitory activity IC50. As for the experimental part: The inhibitory effects of the compounds of the present disclosure on the LPAR1 receptor were determined using a Chinese hamster ovary (CHO) stable transfected cell line expressing the LPAR1 receptor, through the HTRF cAMP kit (LANCE® Ultra cAMP Kit).
The CHO cell line expressing the LPAR1 receptor was cultured in F-12 medium (Gibco, 117650054) containing 10% fetal bovine serum (FBS, Avantor, 76294-180) and 0.2 mg/mL hygromycin B (Solarbio, H8080-1g) at 37°C with 5% CO2. Cell passage, recovery, and cryopreservation were performed according to conventional methods. The stable transfected cell line was cultured to 80% confluence, digested with trypsin to collect cells, counted, and then seeded at 5 µL/well in a 384-well plate (500 cells/5 µL). The 1× Stimulation Buffer was prepared according to the instructions of the kit (LANCE® Ultra cAMP Kit). 1 µL of the test compound solution (diluted to 10× with 1× Stimulation Buffer) was added to the corresponding experimental wells, followed by centrifugation and incubation at 37°C for 10 minutes. […] 5 µL/well of Eu-cAMP (diluted with Detection buffer) was added to the corresponding experimental wells. 5 µL/well of ULight™-anti-cAMP antibody (diluted with Detection buffer) was added to the corresponding experimental wells, followed by centrifugation and incubation at room temperature for 1 hour. After the incubation was completed, the readings at 665 nm and 620 nm under 330 nm excitation were detected using the HTS high-throughput drug screening multifunctional microplate reader (BMG, PHERAstar FSX). The IC50 values were calculated by fitting nonlinear regression (dose response - variable slope) using GraphPad Prism software.
Background: TR-FRET usually uses a lanthanide donor and a delayed reading to cut background.
As for `Cc1nc(-c2nnn(C)c2COC(=O)N(C)CCC(C)(F)F)ccc1C#C[C@@H]1CCC[C@H]1C(=O)O` (single isomer, unassigned) [282-A], the pIC50 is 7.06.

For the molecule `CCCC(C)OC(=O)Nc1c(-c2ccc(C#CC3CCCC3C(=O)O)c(C)n2)nnn1C` (single isomer, unassigned) [305-A], the pIC50 is 7.59.

Consider `Cc1nc(-c2nnn(C)c2NC(=O)O[C@H](C)c2ccccc2Cl)ccc1C#C[C@@H]1C[C@H]1C(=O)O` [compound 053], for which the pIC50 is 6.93.

Regarding `CCCN(C)C(=O)OCc1c(-c2ccc(C#CC3(CC(=O)O)CC3)c(C(F)(F)F)n2)nnn1C` [compound 101], the pIC50 is 6.69.

As to `CCCCN(C)C(=O)OCc1c(-c2ccc(C#CC3(CC(=O)O)CC(F)(F)C3)c(C)n2)nnn1C` [compound 109], the pIC50 is 7.62.

Consider `CCCCN(C)C(=O)OCc1c(-c2ccc(C#CC3(CC(=O)O)CC(OC)C3)c(C)n2)nnn1C` (stereo not shown) [compound 113], for which the pIC50 was 7.71.

Regarding `CCCCN(C)C(=O)OCc1c(-c2ccc(C#CC3(CC(=O)O)CC(OCC)C3)c(C)n2)nnn1C` (stereo not shown) [compound 114], the pIC50 is 8.04.

Consider `CCCN(C)C(=O)OCc1c(-c2ccc(C#CC3(CC(=O)O)CC4(CC4)C3)c(C)n2)nnn1C` [compound 115], for which the pIC50 is 8.08.

As to `CCOc1ccnc(NCc2c(-c3ccc(C#CC4(CC(=O)O)CC4)c(C)n3)nnn2C)n1` [compound 118], the pIC50 is 7.08.

`CCC(F)(F)[C@@H](C)OC(=O)Nc1c(-c2ccc(C#CC3(CC(=O)O)CC3)c(C(F)(F)F)n2)nnn1C` [compound 208, (R)-2-(1-((6-(5-((((3,3-difluoropentan-2-yl)oxy)carbonyl)amino)-1-methyl-1H-1,2,3-triazol-4-yl)-2-(trifluoromethyl)pyridin-3-yl)ethynyl)cyclopropyl)acetic acid]: the pIC50 is 7.36.

As for `CCc1nc(-c2nnn(C)c2NC(=O)O[C@H](C)C(F)(F)CC)ccc1C#CC1(CC(=O)O)CC1` [compound 233], the pIC50 was 6.79.

For `Cc1nc(-c2nnn(C)c2NC(=O)O[C@H](C)CC2CC2)ccc1C#C[C@@H]1CC[C@H]1C(=O)O` [compound 248], the pIC50 is 7.14.

Turning to `CCC(F)(F)[C@@H](C)OC(=O)Nc1c(C)noc1-c1ccc(C#CC2(CC(=O)O)CC2)c(C)n1` [compound 277], the pIC50 was 7.58.

Take `Cc1nc(-c2nnn(C)c2NC(=O)O[C@H](C)CC(C)C)ccc1C#C[C@@H]1C[C@H]1C(=O)O` [compound 290]: the pIC50 was 6.72.

Turning to `Cc1nc(-c2nnn(C)c2NC(=O)OC(C)C23CC(C2)C3)ccc1C#C[C@@H]1C[C@H]1C(=O)O` (stereo partly shown) [compound 294], the pIC50 was 6.71.

Take `Cc1nc(-c2nnn(C)c2NC(=O)OC(C)C23CC(C2)C3)ccc1C#C[C@@H]1CC[C@H]1C(=O)O` (stereo partly shown) [compound 296]: the pIC50 was 7.08.

Turning to `Cc1nc(-c2nnn(C)c2NC(=O)O[C@H](C)CC(C)C)ccc1C#C[C@@H]1CC(F)(F)C[C@H]1C(=O)O` [compound 299], the pIC50 is 7.87.

`CCC[C@@H](C)OC(=O)Nc1c(-c2ccc(C#C[C@@H]3CC(F)(F)C[C@H]3C(=O)O)c(C)n2)nnn1C` [compound 304]: the pIC50 was 6.87.

On to `CCC[C@@H](C)OC(=O)Nc1c(-c2ccc(C#C[C@@H]3CCC[C@H]3C(=O)O)c(C)n2)nnn1C` [compound 305], for which the pIC50 was 7.04.

Consider `CCC(F)(F)[C@@H](C)OC(=O)Nc1c(-c2ccc(C#CC3(CC(=O)O)CCC3)c(C)n2)nnn1C` [compound 323], for which the pIC50 is 7.83.

Take `Cc1nc(-c2noc(C)c2NC(=O)O[C@H](C)CC(C)(F)F)ccc1C#CC1(CC(=O)O)CC1` [compound 334]: the pIC50 is 6.97.

Regarding `CCC(F)(F)[C@@H](C)OC(=O)Nc1c(C)noc1-c1ccc(C#CC2(CC(=O)O)CC2)c(CF)n1` [compound 335], the pIC50 is 6.95.

As for `Cc1nc(-c2onc(C)c2NC(=O)O[C@H](C)CC(C)(F)F)ccc1C#C[C@@H]1CC[C@H]1C(=O)O` [compound 340], the pIC50 was 7.08.

Turning to `Cc1nc(-c2nnn(C)c2NC(=O)O[C@H](C)c2ccccc2)ccc1C#C[C@@H]1CCC[C@H]1C(=O)O` [compound 402], the pIC50 is 7.33.

`CCC[C@@H](C)OC(=O)Nc1c(-c2ccc(C#CC3(CC(=O)O)CC(OCC)C3)c(C)n2)nnn1C` (stereo partly shown) [compound 427]: the pIC50 was 7.23.

For `CCOC1CC(C#Cc2ccc(-c3nnn(C)c3NC(=O)O[C@H](C)CC(C)(F)F)nc2C)(CC(=O)O)C1` (stereo partly shown) [compound 430], the pIC50 was 7.20.

For the molecule `Cc1nc(-c2nnn(C)c2NC(=O)O[C@H](C)C23CC(C2)C3)ccc1C#CC1(CC(=O)O)CC(F)(F)C1` [compound 432], the pIC50 is 7.78.

For `Cc1nc(-c2nnn(C)c2NC(=O)O[C@H](C)CC(C)(F)F)ccc1C#CC1(CC(=O)O)CC2(CC2)C1` [compound 448], the pIC50 is 8.17.

For the molecule `CCC(F)(F)[C@@H](C)OC(=O)Nc1c(-c2ccc(C#CC3(CC(=O)O)CC4(CC4)C3)c(C)n2)nnn1C` [compound 449], the pIC50 is 8.25.

As for `CCC(F)(F)[C@@H](C)OC(=O)Nc1c(-c2ccc(C#CC3(CC(=O)O)CC(OC)C3)c(Cl)n2)nnn1C` (stereo partly shown) [compound 461], the pIC50 was 7.63.

As for `COC1CC(C#Cc2ccc(-c3nnn(C)c3NC(=O)O[C@H](C)c3ccccc3)nc2C)(CC(=O)O)C1` (stereo partly shown) [compound 464], the pIC50 was 7.63.

In the case of `COC1CC(C#Cc2ccc(-c3nnn(C)c3NC(=O)O[C@H](C)c3ccccc3Cl)nc2C)(CC(=O)O)C1` (stereo partly shown) [compound 465], the pIC50 was 7.51.

Regarding `COC1CC(C#Cc2ccc(-c3nnn(C)c3NC(=O)O[C@H](C)c3ccccc3F)nc2C)(CC(=O)O)C1` (stereo partly shown) [compound 466], the pIC50 is 7.59.

Regarding `CCOC1CC(C#Cc2ccc(-c3nnn(C)c3NC(=O)O[C@H](C)C(F)(F)CC)nc2Cl)(CC(=O)O)C1` (stereo partly shown) [compound 467], the pIC50 was 7.78.

As to `CCC(F)(F)[C@@H](C)OC(=O)Nc1c(-c2ccc(C#CC3(CC(=O)O)CC(OC)C3)c(Cl)n2)noc1C` (stereo partly shown) [compound 470], the pIC50 is 7.62.

With `CCC(F)(F)[C@@H](C)OC(=O)Nc1c(C)noc1-c1ccc(C#CC2(CC(=O)O)CC(OC)C2)c(Cl)n1` (stereo partly shown) [compound 471], the pIC50 is 7.47.

As to `CCC(F)(F)[C@@H](C)OC(=O)Nc1c(-c2ccc(C#Cc3ccncc3C(=O)O)c(C)n2)nnn1C` [compound 474, (R)-4-((6-(5-((((3,3-difluoropentan-2-yl)oxy)carbonyl)amino)-1-methyl-1H-1,2,3-triazol-4-yl)-2-methylpyridin-3-yl)ethynyl)nicotinic acid], the pIC50 is 6.78.

Regarding `CCc1nc(-c2nnn(C)c2NC(=O)O[C@H](C)CC(C)(F)F)ccc1C#CC1(CC(=O)O)CC(OC)C1` (stereo partly shown) [compound 476], the pIC50 was 7.12.

Take `CCC[C@@H](C)OC(=O)Nc1c(-c2ccc(C#CC3(CC(=O)O)CC4(CC4)C3)c(C)n2)nnn1C` [compound 478]: the pIC50 was 8.68.

As for `CCC(F)(F)[C@@H](C)OC(=O)Nc1c(C)noc1-c1ccc(C#C[C@@H]2CCC[C@H]2C(=O)O)c(C)n1` [compound 485], the pIC50 was 7.28.

For the molecule `CCC(F)(F)[C@@H](C)OC(=O)Nc1c(C)noc1-c1ccc(C#C[C@@H]2CC[C@H]2C(=O)O)c(C)n1` [compound 486], the pIC50 is 7.47.

With `CCC(F)(F)[C@@H](C)OC(=O)Nc1c(C)noc1-c1ccc(C#C[C@@H]2CC(F)(F)C[C@H]2C(=O)O)c(C)n1` [compound 487], the pIC50 is 7.45.

For `CCC(F)(F)[C@@H](C)OC(=O)Nc1c(C)noc1-c1ccc(C#CC2(CC(=O)O)CC(OC)C2)c(C)n1` (stereo partly shown) [compound 488], the pIC50 was 7.29.

For `CCOC1CC(C#Cc2ccc(-c3nnn(C)c3NC(=O)O[C@H](C)C(F)(F)CC)nc2CC)(CC(=O)O)C1` (stereo partly shown) [compound 489], the pIC50 is 7.85.

With `CCOC1CC(C#Cc2ccc(-c3nnn(C)c3NC(=O)O[C@H](C)C(F)(F)CC)nc2C(F)(F)F)(CC(=O)O)C1` (stereo partly shown) [compound 490], the pIC50 is 8.07.

In the case of `CCC(F)(F)[C@@H](C)OC(=O)Nc1c(-c2ccc(C#CC3(CC(=O)O)CC(OC)C3)c(F)n2)noc1C` (stereo partly shown) [compound 491], the pIC50 is 7.57.

Turning to `CCC(F)(F)[C@@H](C)OC(=O)Nc1c(-c2ccc(C#CC3(CC(=O)O)CC(OC)C3)c(C(F)(F)F)n2)noc1C` (stereo partly shown) [compound 493], the pIC50 is 8.07.

Turning to `C[C@H](CC(C)(F)F)OC(=O)Nc1c(-c2ccc(C#CC3(CC(=O)O)CC4(CC4)C3)c(C(F)(F)F)n2)nnn1C` [compound 498], the pIC50 was 8.22.

Take `CCC(F)(F)[C@@H](C)OC(=O)Nc1c(-c2ccc(C#CC3(CC(=O)O)CC4(CC4)C3)c(C(F)(F)F)n2)nnn1C` [compound 499]: the pIC50 was 7.94.

As for `CCc1nc(-c2nnn(C)c2NC(=O)O[C@H](C)CC(C)(F)F)ccc1C#CC1(CC(=O)O)CC2(CC2)C1` [compound 500], the pIC50 is 8.35.

`C[C@H](CC(C)(F)F)OC(=O)Nc1c(-c2ccc(C#CC3(CC(=O)O)CC4(CC4)C3)c(Cl)n2)nnn1C` [compound 502]: the pIC50 is 8.14.

Regarding `CCC(F)(F)[C@@H](C)OC(=O)Nc1c(-c2ccc(C#CC3(CC(=O)O)CC4(CC4)C3)c(Cl)n2)nnn1C` [compound 503], the pIC50 is 8.07.
